According to patent publication US7329510B2, “Full length human HCN1Ih channel subunit and variants” (N.V. Organon, priority 2000, dated 2008):

Target: T1, human HCN1 channel (Homo sapiens, UniProt O60741, S680F)
T1 construct: Effect of ZD 7288 (100 micromolar) on hHCN1 (full-length) currents; expressed in transfected cells; host or cells: HEK 293F
T1 sequence (O60741 1-890 S680F): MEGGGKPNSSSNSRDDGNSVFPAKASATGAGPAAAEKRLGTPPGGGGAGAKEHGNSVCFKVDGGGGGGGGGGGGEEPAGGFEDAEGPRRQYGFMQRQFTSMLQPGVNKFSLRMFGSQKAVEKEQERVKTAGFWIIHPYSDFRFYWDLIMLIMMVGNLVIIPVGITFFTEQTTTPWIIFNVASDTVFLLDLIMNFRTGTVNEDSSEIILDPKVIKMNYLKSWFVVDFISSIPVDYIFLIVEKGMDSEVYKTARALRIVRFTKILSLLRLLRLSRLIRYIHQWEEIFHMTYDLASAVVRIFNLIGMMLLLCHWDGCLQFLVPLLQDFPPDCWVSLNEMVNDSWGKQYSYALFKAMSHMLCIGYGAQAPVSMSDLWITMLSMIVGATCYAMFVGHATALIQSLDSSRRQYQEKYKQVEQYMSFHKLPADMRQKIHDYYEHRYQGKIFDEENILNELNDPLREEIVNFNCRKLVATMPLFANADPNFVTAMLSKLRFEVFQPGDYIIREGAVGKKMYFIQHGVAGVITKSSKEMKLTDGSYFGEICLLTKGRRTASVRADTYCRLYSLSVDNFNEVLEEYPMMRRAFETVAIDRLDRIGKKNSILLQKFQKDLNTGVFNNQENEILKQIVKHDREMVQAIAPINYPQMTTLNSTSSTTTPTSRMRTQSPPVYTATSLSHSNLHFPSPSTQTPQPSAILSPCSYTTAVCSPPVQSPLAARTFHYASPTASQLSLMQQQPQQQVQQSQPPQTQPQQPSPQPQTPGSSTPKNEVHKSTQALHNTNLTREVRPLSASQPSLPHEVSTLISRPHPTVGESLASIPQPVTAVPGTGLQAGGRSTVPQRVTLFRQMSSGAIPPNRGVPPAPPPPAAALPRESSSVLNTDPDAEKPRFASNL
Assay: Whole-cell patch-clamp functional assay for human HCN1 channel currents
Type: cell-based
Conditions: HEK293 cells expressing human HCN1, step to -120 mV from holding -40 mV
Protocol: Human HCN1 channel currents were detected under voltage-clamp using the whole-cell configuration of the patch-clamp technique. Appropriate cells (HEK293) expressing human HCN1 channel subunits were placed in a recording chamber containing extracellular solution (Sodium chloride 135 mM; Potassium chloride 5 mM; Calcium chloride 1.8 mM; Magnesium chloride 0.5 mM; HEPES 5 mM) at a temperature of 20-25 degrees centigrade. In some experiments the extracellular solution contained 30 mM Potassium chloride, in which cases the Sodium chloride concentration was reduced to 110 mM. […] The membrane current was recorded throughout the experiment. […] The membrane current was measured just after (1-10 milliseconds) the start of the hyperpolarising step and just before (10-100 milliseconds) its end. […] For each cell, the current amplitude was determined first in normal extracellular solution and then in extracellular solution containing caesium chloride (FIG. 3) or ZD 7288 (FIGS. 4 and 7). Alternatively, the effect of caesium chloride (5 mM) on human HCN1 channel currents was determined by measuring the current-voltage relationship in normal extracellular solution and also in extracellular solution containing caesium chloride (FIG. 6). […]

Effect on human HCN1 channel currents (ZD 7288 100 micromolar in extracellular solution) | SMILES | Effect on human HCN1 channel currents (caesium chloride 5 mM in extracellular solution)
– | [Cl-].[Cs+] [caesium chloride] | reduced
reduced | CCN(c1ccccc1)c1cc(=NC)n(C)c(C)n1.Cl [ZD 7288] | –
